Measured values as given in ChEMBL document CHEMBL1909046, “DrugMatrix in vitro pharmacology data”.

Assays:
Substance-P receptor = Substance-P receptor (Homo sapiens, UniProt P25103); type: cell membranes, CHO, Membrane; conditions: cho; note: in other assays of this panel Not Active means under 50% inhibition at 10 µM
Interstitial collagenase = target: T1, Interstitial collagenase (Homo sapiens, UniProt P03956); assay: biochemical; type: tissue-based, Rheumatoid synovial fibroblasts;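 note: MMP-1 enzyme inhibition assay using a peptide substrate; in other assays of this panel Not Active means under 50% inhibition at 10 µM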
T1 sequence (P03956 whole entry): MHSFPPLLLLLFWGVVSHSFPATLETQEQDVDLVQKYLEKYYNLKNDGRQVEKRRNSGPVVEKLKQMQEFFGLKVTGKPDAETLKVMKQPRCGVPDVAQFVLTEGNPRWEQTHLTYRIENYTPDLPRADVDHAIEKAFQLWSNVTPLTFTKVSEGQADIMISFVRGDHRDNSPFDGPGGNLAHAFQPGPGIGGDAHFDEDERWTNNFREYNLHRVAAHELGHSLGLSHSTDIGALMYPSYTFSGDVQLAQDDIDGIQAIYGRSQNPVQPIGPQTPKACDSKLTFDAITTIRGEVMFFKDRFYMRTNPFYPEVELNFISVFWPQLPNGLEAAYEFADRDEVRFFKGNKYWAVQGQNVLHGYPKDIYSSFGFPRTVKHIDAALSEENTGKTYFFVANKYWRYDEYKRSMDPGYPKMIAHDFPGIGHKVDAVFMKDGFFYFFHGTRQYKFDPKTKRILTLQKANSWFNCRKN

[1] = target: T2, C-C chemokine receptor type 4 (Homo sapiens, UniProt P51679); type: cell membranes, Membrane; conditions: chem-1; note: in other assays of this panel Not Active means under 50% inhibition at 10 µM
T2 sequence (P51679 whole entry): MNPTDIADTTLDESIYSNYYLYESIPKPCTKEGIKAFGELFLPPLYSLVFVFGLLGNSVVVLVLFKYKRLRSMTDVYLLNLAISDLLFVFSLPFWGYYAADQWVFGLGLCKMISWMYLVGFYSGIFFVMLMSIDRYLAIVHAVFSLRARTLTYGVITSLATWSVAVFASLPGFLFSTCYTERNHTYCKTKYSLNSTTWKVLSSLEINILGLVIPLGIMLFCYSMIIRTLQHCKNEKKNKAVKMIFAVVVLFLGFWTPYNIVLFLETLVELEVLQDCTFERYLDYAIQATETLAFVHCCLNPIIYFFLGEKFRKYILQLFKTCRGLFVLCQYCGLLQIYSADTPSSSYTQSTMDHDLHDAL

Substance-K receptor = target: T3, Substance-K receptor (Homo sapiens, UniProt P21452); type: cell membranes, CHO, Membrane; conditions: cho; note: in other assays of this panel Not Active means under 50% inhibition at 10 µM
T3 sequence (P21452 whole entry): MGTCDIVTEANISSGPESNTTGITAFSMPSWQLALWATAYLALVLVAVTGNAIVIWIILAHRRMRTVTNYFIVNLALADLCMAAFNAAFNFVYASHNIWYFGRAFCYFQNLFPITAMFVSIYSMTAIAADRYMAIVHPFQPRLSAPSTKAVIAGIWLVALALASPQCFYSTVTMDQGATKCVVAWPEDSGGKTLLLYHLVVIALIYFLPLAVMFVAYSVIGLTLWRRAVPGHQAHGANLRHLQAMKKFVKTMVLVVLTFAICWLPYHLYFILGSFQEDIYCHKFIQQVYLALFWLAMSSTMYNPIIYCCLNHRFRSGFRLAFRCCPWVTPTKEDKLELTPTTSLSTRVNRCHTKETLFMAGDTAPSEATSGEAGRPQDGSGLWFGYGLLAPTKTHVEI

Cytochrome P450 3A4 = Cytochrome P450 3A4 (Homo sapiens, UniProt P08684); conditions: bti-tn-5b1-4; note: in other assays of this panel Not Active means under 50% inhibition at 10 µM
[2] = DRUGMATRIX: Sodium/nucleoside co-transporter radioligand binding (ligand: nitrobenzylthioinosine); type: cell membranes, Cavia porcellus, Dunkin-Hartley, Cerebral cortex, Membrane; conditions: Not Active = under 50% inhibition at 10 µM
Thromboxane-A synthase = target: T4, Thromboxane-A synthase (Homo sapiens, UniProt P24557); assay: biochemical; type: tissue-based, Platelet; conditions: platelet
T4 sequence (P24557 whole entry): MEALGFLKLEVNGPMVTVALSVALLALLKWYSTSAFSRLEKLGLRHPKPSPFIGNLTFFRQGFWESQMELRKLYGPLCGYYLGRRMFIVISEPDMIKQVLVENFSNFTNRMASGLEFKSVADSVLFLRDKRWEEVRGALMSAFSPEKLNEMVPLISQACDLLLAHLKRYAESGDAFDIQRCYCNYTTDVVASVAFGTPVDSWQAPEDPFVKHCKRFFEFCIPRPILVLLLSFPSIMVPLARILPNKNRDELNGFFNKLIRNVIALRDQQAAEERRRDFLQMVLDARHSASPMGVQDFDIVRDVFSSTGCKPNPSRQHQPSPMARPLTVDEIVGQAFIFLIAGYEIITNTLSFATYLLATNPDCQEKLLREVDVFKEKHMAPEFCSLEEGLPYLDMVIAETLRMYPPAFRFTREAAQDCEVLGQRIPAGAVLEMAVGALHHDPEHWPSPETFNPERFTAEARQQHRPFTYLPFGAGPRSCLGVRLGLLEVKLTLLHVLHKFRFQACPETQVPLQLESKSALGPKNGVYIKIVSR

Cytochrome P450 2C19 = Cytochrome P450 2C19 (Homo sapiens, UniProt P33261); conditions: bti-tn-5b1-4; note: in other assays of this panel Not Active means under 50% inhibition at 10 µM
Sequence of Cytochrome P450 2C19 (P33261 whole entry): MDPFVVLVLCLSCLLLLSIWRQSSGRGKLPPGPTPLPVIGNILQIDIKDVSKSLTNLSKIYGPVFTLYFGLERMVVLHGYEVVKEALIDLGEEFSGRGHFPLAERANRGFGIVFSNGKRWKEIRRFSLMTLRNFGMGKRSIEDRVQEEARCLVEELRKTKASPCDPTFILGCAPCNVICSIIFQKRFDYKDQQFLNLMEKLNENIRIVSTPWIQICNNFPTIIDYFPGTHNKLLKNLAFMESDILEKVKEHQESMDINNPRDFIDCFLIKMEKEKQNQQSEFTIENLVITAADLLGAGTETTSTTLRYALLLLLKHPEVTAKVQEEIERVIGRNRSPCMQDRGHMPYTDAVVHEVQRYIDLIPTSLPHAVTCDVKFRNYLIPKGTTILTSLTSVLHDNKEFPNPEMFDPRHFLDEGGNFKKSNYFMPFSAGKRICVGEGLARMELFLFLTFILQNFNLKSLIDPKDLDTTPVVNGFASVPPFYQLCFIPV

Sequence of Cytochrome P450 3A4 (P08684 whole entry): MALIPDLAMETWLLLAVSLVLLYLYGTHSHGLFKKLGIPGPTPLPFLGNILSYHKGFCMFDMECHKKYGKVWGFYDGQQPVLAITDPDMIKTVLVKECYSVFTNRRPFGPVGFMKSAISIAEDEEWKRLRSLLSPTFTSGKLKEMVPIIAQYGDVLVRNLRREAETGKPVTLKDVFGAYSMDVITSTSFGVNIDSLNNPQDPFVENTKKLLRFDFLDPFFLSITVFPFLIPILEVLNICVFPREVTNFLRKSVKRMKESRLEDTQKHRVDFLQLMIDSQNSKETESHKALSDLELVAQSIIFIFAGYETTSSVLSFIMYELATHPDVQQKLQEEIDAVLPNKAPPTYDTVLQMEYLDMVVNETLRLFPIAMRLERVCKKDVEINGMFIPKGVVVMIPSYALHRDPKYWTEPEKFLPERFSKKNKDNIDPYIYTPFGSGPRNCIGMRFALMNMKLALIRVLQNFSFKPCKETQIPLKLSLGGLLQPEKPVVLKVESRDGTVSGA
Sequence of Substance-P receptor (P25103 whole entry): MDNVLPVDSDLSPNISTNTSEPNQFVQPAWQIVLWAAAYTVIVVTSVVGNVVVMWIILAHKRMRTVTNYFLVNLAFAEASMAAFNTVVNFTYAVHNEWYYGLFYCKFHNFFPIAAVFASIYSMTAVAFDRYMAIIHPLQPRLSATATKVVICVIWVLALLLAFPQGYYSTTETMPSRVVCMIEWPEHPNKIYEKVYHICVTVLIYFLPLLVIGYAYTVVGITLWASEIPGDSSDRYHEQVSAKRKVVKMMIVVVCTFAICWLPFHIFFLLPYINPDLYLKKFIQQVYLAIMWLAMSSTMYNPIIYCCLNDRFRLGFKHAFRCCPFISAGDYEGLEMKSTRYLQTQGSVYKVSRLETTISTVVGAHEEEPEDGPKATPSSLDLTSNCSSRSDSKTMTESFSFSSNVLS

Cn1c(=O)c2c(ncn2C)n(C)c1=O [CAFFEINE]
Not Active: IC50 (Substance-P receptor) | IC50 (Interstitial collagenase) | IC50 [1] | IC50 (Substance-K receptor) | IC50 (Cytochrome P450 3A4) | Ki (Cytochrome P450 3A4) | IC50 [2] | Ki [2] | IC50 (Thromboxane-A synthase) | IC50 (Cytochrome P450 2C19) | Ki (Cytochrome P450 2C19)

CC(C)NCC(O)c1ccccc1Cl (centres undefined) [CLORPRENALINE]
Not Active: IC50 (Substance-P receptor) | IC50 (Interstitial collagenase) | IC50 [1] | IC50 (Substance-K receptor) | IC50 (Cytochrome P450 3A4) | Ki (Cytochrome P450 3A4) | IC50 [2] | Ki [2] | IC50 (Thromboxane-A synthase) | IC50 (Cytochrome P450 2C19) | Ki (Cytochrome P450 2C19)

NC(=O)c1cccnc1 [NIACINAMIDE]
Not Active: IC50 (Substance-P receptor) | IC50 (Interstitial collagenase) | IC50 [1] | IC50 (Substance-K receptor) | IC50 (Cytochrome P450 3A4) | Ki (Cytochrome P450 3A4) | IC50 [2] | Ki [2] | IC50 (Thromboxane-A synthase) | IC50 (Cytochrome P450 2C19) | Ki (Cytochrome P450 2C19)

CC(=O)OCC(=O)[C@@]1(O)CC[C@H]2[C@@H]3CCC4=CC(=O)CC[C@]4(C)[C@@]3(F)[C@@H](O)C[C@@]21C [FLUDROCORTISONE ACETATE]
Not Active: IC50 (Substance-P receptor) | IC50 (Interstitial collagenase) | IC50 [1] | IC50 (Substance-K receptor) | IC50 (Cytochrome P450 3A4) | Ki (Cytochrome P450 3A4) | IC50 [2] | Ki [2] | IC50 (Thromboxane-A synthase) | IC50 (Cytochrome P450 2C19) | Ki (Cytochrome P450 2C19)

CN(C)C(=O)Oc1cccc([N+](C)(C)C)c1.[Br-] [NEOSTIGMINE BROMIDE]
Not Active: IC50 (Substance-P receptor) | IC50 (Interstitial collagenase) | IC50 [1] | IC50 (Substance-K receptor) | IC50 (Cytochrome P450 3A4) | Ki (Cytochrome P450 3A4) | IC50 [2] | Ki [2] | IC50 (Thromboxane-A synthase) | IC50 (Cytochrome P450 2C19) | Ki (Cytochrome P450 2C19)

C[C@]12CC[C@@H]3c4ccc(O)cc4CC[C@H]3[C@@H]1C[C@@H](O)[C@@H]2O [ESTRIOL]
Not Active: IC50 (Substance-P receptor) | IC50 (Interstitial collagenase) | IC50 [1] | IC50 (Substance-K receptor) | IC50 (Cytochrome P450 3A4) | Ki (Cytochrome P450 3A4) | IC50 [2] | Ki [2] | IC50 (Thromboxane-A synthase) | IC50 (Cytochrome P450 2C19) | Ki (Cytochrome P450 2C19)

O=C(O)P(=O)(O)O [FOSCARNET]
Not Active: IC50 (Substance-P receptor) | IC50 (Interstitial collagenase) | IC50 [1] | IC50 (Substance-K receptor) | IC50 (Cytochrome P450 3A4) | Ki (Cytochrome P450 3A4) | IC50 [2] | Ki [2] | IC50 (Thromboxane-A synthase) | IC50 (Cytochrome P450 2C19) | Ki (Cytochrome P450 2C19)

C[C@H]1[C@H](NC(=O)/C(=N\OC(C)(C)C(=O)O)c2csc(N)n2)C(=O)N1S(=O)(=O)O [AZTREONAM]
Not Active: IC50 (Substance-P receptor) | IC50 (Interstitial collagenase) | IC50 [1] | IC50 (Substance-K receptor) | IC50 (Cytochrome P450 3A4) | Ki (Cytochrome P450 3A4) | IC50 [2] | Ki [2] | IC50 (Thromboxane-A synthase) | IC50 (Cytochrome P450 2C19) | Ki (Cytochrome P450 2C19)

CN1C[C@@H]2C[C@H]1CN2c1cc2c(cc1F)c(=O)c(C(=O)O)cn2C1CC1 [DANOFLOXACIN]
Not Active: IC50 (Substance-P receptor) | IC50 (Interstitial collagenase) | IC50 [1] | IC50 (Substance-K receptor) | IC50 (Cytochrome P450 3A4) | Ki (Cytochrome P450 3A4) | IC50 [2] | Ki [2] | IC50 (Thromboxane-A synthase) | IC50 (Cytochrome P450 2C19) | Ki (Cytochrome P450 2C19)
